For one data set, the system named is filaggrin (FLG). Put plainly: 3D micro-epidermis model (EpiScreen): filaggrin immunostaining.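 Further: human primary epidermal keratinocytes differentiated in high calcium into 3D micro-epidermises, compound-treated for three days, imaged by confocal high-content microscopy, filaggrin staining intensity quantified within actin-segmented structures.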 It is filed as cell-based, human.
The next data set relates to Keratinocytes. Put plainly: WST-8 viability and proliferation assay. It is filed as cell-based, human. The note with it: keratinocytes exposed for 24 h, relative to vehicle (FIG. 5a). The text has this: The Water-Soluble Tetrazolium Salts (WST-8) Colorimetric Cell Proliferation Kit (Promokine, Heidelberg, Germany) provides a rapid and sensitive way to quantify proliferation and cell viability. Cell proliferation causes an increase in the amount of formazan dye formed that can be quantified by measuring the absorbance of the dye solution at […] using a microtiter plate reader (Perkin Elmer EnVision 2103 Multilabel Reader, Waltham, MA, USA). Cellular proliferation induces an increase in the activity of mitochondrial dehydrogenases, which cleaves the tetrazolium salt […] into formazan. 15,000 Keratinocytes per well were seeded on 96-well plate, once confluence reach, drug concentration used were +/−½ log of the plasmatic concentration. 10 μl of Colorimetric Cell Viability Kit is added and completed with 360 μl of culture media, results were read after 4 h at 450 nm to determine cell viability. Results were obtained with 6 donors of keratinocytes in 2 experiments
(Tetrazolium assays rely on reduction of a dye to a coloured formazan, in cell work by metabolically active cells.)

Data set [1] relates to Human epidermal keratinocytes cells (HPEKs), 3D micro-epidermis. Put plainly: 3D micro-epidermis model (EpiScreen): epidermis size, toxicity, dose response, classification.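 Further: keratinocytes on micropatterned discs in high-calcium medium, drug exposure for three days, then fixation and confocal high-content imaging of actin, nuclei and a marker, vehicle DMSO-matched.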 It is filed as cell-based.
The test system of another data set is involucrin (IVL). Put plainly: 3D micro-epidermis model (EpiScreen): involucrin immunostaining. In kind it is cell-based, human. On the procedure: To assess the effects of such therapy molecules on the epidermis, keratinocytes were grown in the presence of kinase inhibitors during 3 days with high calcium concentration to induce keratinocyte differentiation and generate a 3D-stratified differentiated epidermis. Drug impact on the epidermis development was assessed via different keratinocyte markers including: • Ki-67, an universally expressed protein among proliferating cells and absent in the quiescent cells; • Filaggrin, a filament-associated protein that binds to keratin fibers and is a marker of terminal differentiation; • Desmoglein-1, a component of desmosomes and differentiation marker expressed in all epidermal layer above the basal layer; and • Involucrin, an early differentiation marker expressed in the spinous and granular layers and a protein precursor of the epidermal cornified envelope.
Human epidermal keratinocytes cells (HPEKs) from a juvenile donor (CellnTec, Switzerland) are cultured in flasks in proliferation medium. Keratinocytes are seeded at passage 6 into EpiScreen™ (Abzena, Cambridge, UK) plates containing collagen 1 coated disc micropatterns (CYTOO, Grenoble, France). Four hours later, unattached cells are washed off and a high calcium medium is added to induce keratinocytes differentiation. The day after, keratinocytes are treated with screening compounds, and Trichostatin A is added at 0.3 μM as an internal positive control. After three days of treatment, micro-epidermises are fixed with a formalin solution 10% for 30 minutes, then permeabilized with 0.1% Triton. Several immunostainings are performed: actin (Acti-Stain 555, PHDH1, Cytoskeleton), nuclei (Hoechst, H3570, Invitrogen), and one biomarker of interest per well either anti-involucrin (HPA055211, Sigma), anti-filaggrin (HPA030189, Sigma) or anti-desmoglein-1 (HPA022128, Sigma). Antibodies are added overnight at 4° C. before staining with secondary antibody, anti-rabbit 488 (711-545-152, Jackson) for 2 hours at room temperature.
Images of each well are acquired with the Operetta HCS platform (Perkin Elmer, Waltham, MA, USA) using a ×10 objective in confocal mode in eight z-planes from 2 μm to 44 μm in steps of 6 μm in each of the 3 channels: actin, nuclei, and one biomarker of interest. The first step of the image analysis consists in detecting micro-epidermis structures on the first z-plane by segmenting the actin staining. Micro-epidermis structures are validated based on several area and roundness min and max criteria. Then, the area of each biomarker staining is measured inside the valid micro-epidermis masks through each z-plane. For all homogeneous biomarker staining, their intensity through the different planes is measured.
The actin network of each micro-epidermis is analyzed in each z-plane in order to determine the average 3D structure edges. The biomarker intensity is measured in each z-plane for each structure, and then averaged with the other results generated in the same well. Based on the data generated in the two previous steps, an average 3D reconstruction image is generated. It consists of a meshwork that delimits the structure edges, and a color scaled volume that corresponds to the biomarkers distribution and expression.
The effect of 8 oncology molecules, selected from first generation EGFRi and pan-kinase inhibitors which mostly target VEGFR and second and third generation therapies targeting main mutations relating to first generation treatment resistance, were assessed in vitro using a 3D micro-epidermis model. […] The drug impact was assessed by analysis of tissue size and keratinocyte proliferation using Ki-67 staining and keratinocyte differentiation using filaggrin, desmoglein-1 and involucrin staining.
Size of the epidermis and the expression of the protein junction desmoglein-1 (DSG1), involucrin (IVL) and filaggrin (FLG) was assessed by immunostaining and compared to untreated control. […]

“Also recorded” adds a separate entry of the source.

For the molecule `CN(C)C/C=C/C(=O)Nc1cc2c(Nc3ccc(F)c(Cl)c3)ncnc2cc1O[C@H]1CCOC1` [Afatinib], the “FLG 3 nM” value in the data set on filaggrin (FLG) (3 nM, supplementary data) came out at 4%. Moreover, the “FLG 30 nM” value with filaggrin (FLG) (30 nM, supplementary data) was 19%. Besides, the activation at 0.01 µM in the data set on filaggrin (FLG) (Homo sapiens, 72 h, 10 nM, supplementary data, two runs, read-out: FLG 10 nM) was determined as 12%. Moreover, in the data set on filaggrin (FLG) (Table 1 summary), the FLG expression result is recorded as “Increased”. Also, the “filaggrin expression” value with filaggrin (FLG) (concentration (afatinib 10 and 30 nM; pan-kinase inhibitors 100 nM)) is “significantly increased; also recorded: increased in a dose-dependent manner”. The cell viability result in the data set on Keratinocytes is “decreases; also recorded: significant effect”. Besides, the “Toxicity at 1 μM” value in data set [1] (1 μM, micro-epidermis) is given as “Yes”. In data set [1] (3, 10, 30 nM), the “effect on desmoglein-1, involucrin and filaggrin expression (dose dependence)” value is on record as “increases; also recorded: dose-dependent manner”. Besides, the Epidermis size entry was “Decreased” in data set [1] (Table 1 summary of drug effect on epidermis) and “Decreased^2” in data set [1] (Table 3, 30 nM (EGFRi) or 100 nM (VEGFRi), 3 days, vs untreated control, superscript = significance footnote). Moreover, the Classification entry in data set [1] (Table 1 summary, pro-differentiation / pro-proliferation) is on record as “Pro-differentiation”; in data set [1] (Table 3, pro-proliferation or pro-differentiation) it was “Pro-”. In data set [1] (Table 3, variation of protein expression at 3, 10, 30 nM (EGFRi) or 3, 10, 30, 100 nM (VEGFRi), markers in brackets), the Dose in response result was “Yes”. Further, the “toxicity at higher drug concentration” value in data set [1] (above 1 μM, micro-epidermis) was “toxic leading to epidermal necrosis”. Further, in data set [1] (concentration (afatinib 3-30 nM; pan-kinase inhibitors up to 100 nM)), the “micro-epidermis size / epidermal volume” value was “significantly decreased; also recorded: significantly reduced”. The Dose/response result in data set [1] (supplementary table, per run (1st or 2nd Run), markers in brackets) was “Yes (DSG, IVL,”. In the data set with involucrin (IVL) (30 nM, supplementary data), the “IVL 30 nM” value amounted to 12%. Moreover, in the data set with involucrin (IVL) (Homo sapiens, 72 h, 100 nM, supplementary data, two runs, Tox = toxic), the activation at 0.1 µM came out at 16%. This molecule also returned an activation at 1 µM in the data set on involucrin (IVL) (Homo sapiens, 72 h, 1 μM, supplementary data, two runs, Tox = toxic) of 27%. In addition, the IVL expression result in the data set with involucrin (IVL) (Table 1 summary) is listed as “Increased”. Further, in the data set with involucrin (IVL) (concentration (afatinib 3, 10, 30 nM; pan-kinase inhibitors 100 nM)), the “involucrin expression” value is listed as “significantly increased; also recorded: increased in a dose-dependent manner”.

The values above are taken from US12174172B2, “Method for evaluating the efficacy of a composition in reducing the effects of cancer therapeutics on skin” (Johnson & Johnson Consumer Inc., priority 2019, dated 2024).
